# Assay results: article PMC12289066, “Identification of glutathione transferase (GST P1) inhibitors via a high-throughput screening assay and implications as alternative treatment options for breast cancers” (PLOS One, 2025)
# Molecular target: T1, GST P1-1 (Homo sapiens, UniProt P09211)
# T1 construct: purchased Sigma-Aldrich
# Assay: High-throughput GST P1-1 inhibition assay (384-well screen, CDNB/GSH)
# Type: biochemical
# Conditions: compound 10 μM; score 0 = negative control (DMSO), 1 = positive control (EA 50 μM); average of duplicate
# Protocol: Each drug compound was added to the respective well at a volume of 80 nL of 10 mM stock solution in DMSO, yielding a final compound concentration of 10 μM and a final DMSO concentration of 0.1%. Each plate’s first and last two columns were used as negative (no compound added – 80 nL per well of DMSO) and positive (80 nL of EA added with a final concentration of 50 μM) controls, respectively. The Gyger Certus Flex dispenser was set up using a freshly prepared 1 mM of GSH and 20 nM of GST P1-1, pH 7.4, in one syringe and 8 mM CDNB solution in pure ethanol in the other syringe. Into each well 80 μL of GST-GSH solution was dispensed and incubated at 25°C for 20 minutes before the reaction was initiated by the addition of 4 μL of CDNB solution. The plates were incubated for 2 h in the dark at 25°C and then the absorbance was of each well recorded on a BioTek Synergy NEO HTS multimode plate reader (Agilent®) at a wavelength of 340 nm.
# The z’factor was calculated for each plate according to Zhang et al.. The Z-factor is a dimensionless, simple statistical characteristic for each HTS assay. This provides a valuable tool for the comparison and assessment of the quality of assays, and can be utilized in assay optimization and validation. For each plate, the concentration of product was normalized by assigning a score of 0 (0%) to the negative control (average of maximal concentration of product measured in the presence of enzyme without any inhibitor) and a score of 1 (100%) was assigned to the positive control (average minimal concentration of product measured in the presence of enzyme with the reference inhibitor, i.e., EA). The experiment was performed in duplicate and the score for each drug compound was calculated as an average ± standard deviation. […] An internal laboratory information management system (LIMS) was used for basic data processing, management, visualization, and statistical hit validation.
# T1 sequence (P09211 2-210 limits assumed): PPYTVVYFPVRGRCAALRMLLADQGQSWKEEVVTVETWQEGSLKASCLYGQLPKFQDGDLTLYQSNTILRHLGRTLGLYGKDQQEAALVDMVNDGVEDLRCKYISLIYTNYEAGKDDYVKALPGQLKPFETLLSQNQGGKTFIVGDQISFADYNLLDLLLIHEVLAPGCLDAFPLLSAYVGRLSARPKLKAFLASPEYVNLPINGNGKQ
row,Compound,Score
1,O=C(O)C(Cc1ccccc1[N+](=O)[O-])=NNc1nc(-c2ccc(Cl)c(Cl)c2)cs1 (mixture of isomers) [4EGI-1],0.730
2,CC#C[C@@H](CC(=O)[O-])c1ccc(OCc2cccc(-c3ccc(C(F)(F)F)cc3)c2)cc1.CC#C[C@@H](CC(=O)[O-])c1ccc(OCc2cccc(-c3ccc(C(F)(F)F)cc3)c2)cc1.O.[Ca+2] [AMG 837 (calcium hydrate)],0.783
3,NC[C@@](O)(c1ccc(Cl)cc1)c1ccc(-c2cn[nH]c2)cc1 [AT13148],0.738
4,O=C1c2c(O)cccc2Cc2cccc(O)c21 [Anthralin],0.694
5,CC(C)(c1ccc(OCC2CO2)cc1)c1ccc(OCC2CO2)cc1 (centres unmarked) [BADGE],0.715
6,Oc1c(Cl)cc(Cl)cc1Sc1cc(Cl)cc(Cl)c1O [Bithionol],1.007
7,O=C1C=Cc2cc(Br)ccc2C1=O [Bonaphthone],0.770
8,CCN(CC)c1ccc(C(=C2C=CC(=[N+](CC)CC)C=C2)c2ccccc2)cc1 [Brilliant-green],0.783
9,CCOC(=O)Nc1cc(-c2ccc(C)c(NS(C)(=O)=O)c2)nn2c(C)nnc12 [Bromosporine],0.801
10,CC(C)(C)c1ccc(CN2CCN(C(c3ccccc3)c3ccc(Cl)cc3)CC2)cc1 (centres unmarked) [Buclizine],0.694
11,O=C(O)c1ccc(-c2ccc3cc(O)c(C45CC6CC(CC(C6)C4)C5)cc3c2)cc1 [CD-1530],0.979
12,O=C(O)C1(c2ccc(-c3ccc(Cl)c(Cl)c3)c(F)c2)CC1 [CHF5074],0.911
13,COc1cc(-c2ccc(N=Nc3ccc4c(S(=O)(=O)[O-])cc(S(=O)(=O)[O-])c(N)c4c3O)c(OC)c2)ccc1N=Nc1ccc2c(S(=O)(=O)[O-])cc(S(=O)(=O)[O-])c(N)c2c1O.[Na+].[Na+].[Na+].[Na+] [Chicago sky blue 6B],0.863
14,"CCCCCC/C=C/C=C\CCCCCCCC(=O)O [Cis-9,trans-11-Conjugated-linoleic-acid]",0.796
15,O=c1c(-c2ccccc2)c1-c1ccccc1 [Diphencyprone],0.744
16,CC/C=C\C/C=C\C/C=C\C/C=C\C/C=C\C/C=C\CCC(=O)O [Docosahexaenoic Acid],0.821
17,CC(C)c1cccc2c(-c3ccccc3)cc(-c3ccc(-c4ccc(C(=O)O)cc4)[nH]3)nc12 [ER-50891],0.927
18,CC1=NN(c2ccccc2)C(=O)C1 [Edaravone],0.958
19,O=C1OC2(c3ccccc31)c1cc(I)c(O)c(I)c1Oc1c2cc(I)c(O)c1I [Erythrosine],0.828
20,Cc1cc(-c2ccc(/N=N/c3ccc4c(S(=O)(=O)O)cc(S(=O)(=O)O)c(N)c4c3O)c(C)c2)ccc1/N=N/c1ccc2c(S(=O)(=O)O)cc(S(=O)(=O)O)c(N)c2c1O [Evans Blue],0.783
21,CCOc1c2c(c(OCC)c3ccccc13)C(=O)N(c1ccc(CC(=O)NS(=O)(=O)c3ccccc3)cc1)C2 [GW627368],0.854
22,CC(C)c1onc(-c2c(Cl)cccc2Cl)c1COc1ccc(/C=C/c2cccc(C(=O)O)c2)c(Cl)c1 [GW 4064],0.702
23,CC1=C(CCC(=O)O)c2cc3[nH]c(cc4nc(cc5[nH]c(cc1n2)c(C)c5C(C)O)C(C)=C4C(C)O)c(C)c3CCC(=O)O (centres unmarked) [Hematoporphyrin],0.758
24,O=C(NCc1ccc(Oc2ccccc2)cc1)c1nc(-c2cc(Br)c(O)c(Br)c2)no1 [IOWH-032],0.901
25,Oc1ccc2ccccc2c1SSc1c(O)ccc2ccccc12 [IPA-3],0.881
26,C=CC(=O)c1ccc2ccccc2c1 [JAK3-inhibitor-V],0.817
27,Cc1noc(-c2ccc(CSCCC(=O)O)cc2)c1NC(=O)OC(C)c1ccccc1Cl (centres unmarked) [Ki16425],0.710

row,Compound,Score
1,CC[C@@H](C(=O)[C@@H](C)[C@@H](O)[C@H](C)CCc1ccc(C)c(O)c1C(=O)O)[C@H]1O[C@](CC)([C@H]2CC[C@](O)(CC)[C@H](C)O2)C[C@@H]1C [Lasalocid],0.863
2,O=[N+]([O-])/C=C/c1ccc2c(c1)OCO2 [MNS],0.850
3,COc1cc(C[C@H](C)[C@H](C)Cc2ccc3c(c2)OCO3)ccc1O [Macelignan],0.803
4,O=C([O-])c1ccccc1-c1c2cc(Br)c(=O)cc-2oc2[c]([Hg+])c([O-])c(Br)cc12.[Na+].[Na+].[OH-] [Merbromin],0.993
5,Cc1cc(=O)n(-c2ccccc2)[nH]1 [N-demethylantipyrine],1.019
6,O=C(Nc1cccc(C(F)(F)F)c1)Nc1ccc(Br)cc1-c1nn[nH]n1 [NS-3623],0.752
7,CCCCCCCCCCCCc1ccc(S(=O)(=O)Nc2nncs2)cc1 [PHT-427],0.696
8,CC1(C)CCC(C)(C)c2cc(Cn3cccn3)c(/C=C/c3ccc(C(=O)O)cc3)cc21 [Palovarotene],0.763
9,C=CC1=C(C)c2cc3[nH]c(cc4nc(cc5[nH]c(cc1n2)c(C)c5CCC(=O)O)C(CCC(=O)O)=C4C)c(C)c3C=C [Protoporphyrin IX],0.914
10,CC1(C)CC[C@]2(NC(=O)C(C)(F)F)CC[C@]3(C)[C@H](C(=O)C=C4[C@@]5(C)C=C(C#N)C(=O)C(C)(C)[C@@H]5CC[C@]43C)[C@@H]2C1 [RTA-408],0.807
11,O=C1OC2(c3cc(I)c(O)c(I)c3Oc3c2cc(I)c(O)c3I)c2c(Cl)c(Cl)c(Cl)c(Cl)c21 [Rose-bengal-lactone],0.937
12,O=C1OC2(c3cc(I)c(O)c(I)c3Oc3c2cc(I)c(O)c3I)c2c(Cl)c(Cl)c(Cl)c(Cl)c21 [Rse-bengal],0.996
13,N[C@@H](Cc1cc(-c2ccc(Cl)cc2Cl)cc(CP(=O)(O)O)c1O)C(=O)O [SDZ-220-040],0.871
14,Oc1ccc(Nc2nc(-c3ccc(Cl)cc3)cs2)cc1 [SKI II],0.694
15,CC1=C(/C=C/C(=C/C=C/C(C)=C/C(=O)O)c2ccc(C)cc2)C(C)(C)CCC1 [SR-11302],0.733
16,O=C(/C=C/c1ccccc1)NC(NC(=S)Nc1ccc(Cl)cc1)C(Cl)(Cl)Cl (centres unmarked) [Sal003],0.865
17,CC(C)=CCC/C(C)=C/CC/C(C)=C/CSc1ccccc1C(=O)O [Salirasib],0.717
18,O=C1C(CC[S+]([O-])c2ccccc2)C(=O)N(c2ccccc2)N1c1ccccc1 (centres unmarked) [Sulfinpyrazone],0.823
19,O=S(=O)(O)c1ccc(-c2c3nc(c(-c4ccc(S(=O)(=O)O)cc4)c4ccc([nH]4)c(-c4ccc(S(=O)(=O)O)cc4)c4nc(c(-c5ccc(S(=O)(=O)O)cc5)c5ccc2[nH]5)C=C4)C=C3)cc1 [TPPS4],0.809
20,"Cc1c(S(=O)(=O)O)oc2c1C(=O)C(=O)c1c-2ccc2c1CCCC2(C)C [Tanshinone IIA sulfonate (sodium), Tanshinone IIA sulfonate]",0.981
21,Oc1cccc(-c2c3nc(c(-c4cccc(O)c4)c4ccc([nH]4)c(-c4cccc(O)c4)c4nc(c(-c5cccc(O)c5)c5ccc2[nH]5)CC4)C=C3)c1 [Temoporfin],0.699
22,O=C(O)C(=O)c1cn(Cc2ccccc2)c2ccc(-c3ccc(OC(F)(F)F)cc3)cc12 [Tiplaxtinin],0.836
23,O=C(Nc1ccc(Cl)cc1)Nc1ccc(Cl)c(Cl)c1 [Triclocarban],0.702
24,Cc1cc(F)c(Nc2ncnc3cc(OCc4ccccc4)ccc23)cc1O.Cl [ZM323881 (hydrochloride)],0.946
25,COc1cc(C(=O)NS(=O)(=O)c2ccccc2C)ccc1Cc1cn(C)c2ccc(NC(=O)OC3CCCC3)cc12 [Zafirlukast],0.801
26,AS-2034178,0.982
